Laboratory results reported in patent publication US12011460B2, “Expansion of NK and DC cells in vivo mediating immune response” (UNIVERSITE DE MONTREAL, priority 2018, dated 2024).

Tested on: CD34 + CD45RA- cells
Experiment: Expansion of CD34+CD45RA- cells compared to DMSO (EC50)
Format: cell-based
Details: concentration of compound necessary to expand 50% more of CD34+CD45RA- cells as compared to cells treated with DMSO

Structure (SMILES) | EC50 [nM]
COC(=O)c1ccc2c(c1)[nH]c1nc(Cc3ccccc3)nc(NCCNC3=NCCC3)c12 [Compound 59] | 75
COC(=O)c1ccc2c(c1)[nH]c1nc(Cc3cccc(C(=O)C(F)(F)F)c3)nc(NCCCN3CCCCC3)c12 [Compound 7] | 31
COC(=O)c1ccc2c(c1)[nH]c1nc(Cc3ccccc3)nc(NCCNS(C)(=O)=O)c12 [Compound 33] | 33
COC(=O)c1ccc2c(c1)[nH]c1nc(Cc3ccccc3)nc(NCC(O)CO)c12 (centres unmarked) [Compound 44] | 59
CCOC(=O)c1ccc2c(c1)[nH]c1nc(Cc3ccccc3)nc(NCCCN3CCCCC3)c12 [Compound 5] | 154
[H]/N=C(/N)NCCNc1nc(Cc2ccccc2)nc2[nH]c3cc(C(=O)OC)ccc3c12 [Compound 36] | 68
Cn1nnc(-c2ccc3c(c2)[nH]c2ncnc(NCCCCN4CCCCC4)c23)n1 [Compound 29] | 36
COC(=O)c1ccc2c(c1)[nH]c1nc(Cc3ccccc3)nc(NCCN(C)CC(F)F)c12 [Compound 45] | 336
COC(=O)c1ccc2c(c1)[nH]c1nc(Cc3ccccc3)nc(NCCN(C)C(C)=O)c12 [Compound 37] | 83
COC(=O)c1ccc2c(c1)[nH]c1nc(Cc3ccccc3)nc(NCCN(C(C)C)C(C)C)c12 [Compound 61] | 10.1
CNC(=O)c1ccc2c(c1)[nH]c1nc(Cc3ccccc3)nc(NCCCN3CCCCC3)c12 [Compound 12] | 2440
C#Cc1cccc(Cc2nc(NCCN(C)CCN)c3c(n2)[nH]c2cc(-c4nnn(C)n4)ccc23)c1 [Compound 32] | 104
COC(=O)c1ccc2c(c1)[nH]c1nc(Cc3cccnc3)nc(NCCCN3CCCCC3)c12 [Compound 4] | 14
COC(=O)c1ccc2c(c1)[nH]c1nc(Cc3ccccc3)nc(NCC3CCCN(C(=O)OC)C3)c12 (centres unmarked) [Compound 55] | 79
COC(=O)c1ccc2c(c1)[nH]c1nc(Cc3ccccc3)nc(NCC3CCCNC3)c12 (centres unmarked) [Compound 52] | 7
Cn1nnc(-c2ccc3c(c2)[nH]c2ncnc(NCCCN4CCC(O)CC4)c23)n1 [Compound 28] | 277
COC(=O)c1ccc2c(c1)[nH]c1nc(CCc3ccccc3)nc(NCCCN(C)CC(O)C[N+](C)(C)C)c12 (centres unmarked) [Compound 53] | 117
COC(=O)c1ccc2c(c1)[nH]c1nc(Cc3ccccc3)nc(NCCCCO)c12 [Compound 54] | 118
COC(=O)c1ccc2c(c1)[nH]c1nc(Cc3ccccc3)nc(NNc3ccc(S(C)(=O)=O)cc3)c12 [Compound 60] | 23
COC(=O)c1ccc2c(c1)[nH]c1nc(Cc3ccccc3)nc(NCCCN(C)CCCNc3ncnc4[nH]c5ccccc5c34)c12 [Compound 21] | 19
COC(=O)c1ccc2c(c1)[nH]c1nc(Cc3ccc4ccccc4c3)nc(NCCCN3CCCCC3)c12 [Compound 8] | 150

Structure (SMILES) | EC50 [nM]
COC(=O)c1ccc2c(c1)[nH]c1nc(C(=O)c3ccccc3)nc(SCCCN3CCCCC3)c12 [Compound 16] | 5
COC(=O)c1ccc2c(c1)[nH]c1nc(Cc3ccccc3)nc(NCCCCCN(C)C)c12 [Compound 40] | 2
COC(=O)c1ccc2c(c1)[nH]c1nc(Cc3cccc(C(O)C(F)(F)F)c3)nc(NCCCN3CCCCC3)c12 (centres unmarked) [Compound 6] | 16
Cn1nnc(-c2ccc3c(c2)[nH]c2nc(Cc4ccccc4)nc(NCCOCCO)c23)n1 [Compound 46] | 141
COC(=O)c1ccc2c(c1)[nH]c1nc(Cc3ccccc3)nc(NCCS(N)(=O)=O)c12 [Compound 50] | 67
Cn1nnc(-c2cnc3c(c2)[nH]c2nc(Cc4ccccc4)nc(N[C@H]4CC[C@H](N)CC4)c23)n1 [Compound 27] | 367
COC(=O)c1ccc2c(c1)[nH]c1cc(Cc3cccc(O)c3)nc(NCCCCN3CCCC3)c12 [Compound 35] | 44
COC(=O)c1ccc2c(c1)[nH]c1nc(Cc3ccccc3)nc(NCCCCCCCCN)c12 [Compound 41] | 39
COC(=O)c1ccc2c(c1)[nH]c1nc(Cc3ccccc3)nc(CCCCN3CCCCC3)c12 [Compound 17] | 15
COC(=O)c1ccc2c(c1)[nH]c1nc(Cc3ccccc3)nc(SCCCN3CCCCC3)c12 [Compound 15] | 327
COC(=O)c1ccc2c(c1)[nH]c1nc(Cc3cccc(F)c3)nc(NCCCN3CCCCC3)c12 [Compound 2] | 20
COC(=O)c1ccc2c(c1)[nH]c1nc(C(OC)c3ccccc3)nc(NCCCN3CCCCC3)c12 (centres unmarked) [Compound 13] | 68
COC(=O)c1ccc2c(c1)[nH]c1nc(Cc3ccccc3)nc(NCC(O)CN3CCCCC3)c12 (centres unmarked) [Compound 10] | 7
COC(=O)c1ccc2c(c1)[nH]c1nc(Cc3ccccc3)nc(NCCN3CCOCC3)c12 [Compound 42] | 12
CNCCCNc1ncnc2[nH]c3cc(-c4nnn(C)n4)ccc3c12 [Compound 30] | 135
COC(=O)c1ccc2c(c1)[nH]c1nc(Cc3cccs3)nc(NCCCN3CCCCC3)c12 [Compound 3] | 8
COC(=O)c1ccc2c(c1)[nH]c1nc(Cc3cccc(CO)c3)nc(NCCCN(C)CCCN)c12 [Compound 19] | 38
COC(=O)c1ccc2c(c1)[nH]c1nc(Cc3ccccc3)nc(NCc3cnc(C)cn3)c12 [Compound 56] | 48
COC(=O)c1ccc2c(c1)[nH]c1nc(Cc3ccccc3)nc(NCCCO)c12 [Compound 47] | 26
CN1CCN(c2ccc(CNc3nc(Cc4ccccc4)nc4[nH]c5cc(-c6nnn(C)n6)ccc5c34)cc2)CC1 [Compound 22] | 100
COC(=O)c1ccc2c(c1)[nH]c1cc(Cc3cccnc3)cc(NCCCN3CCOCC3)c12 [Compound 38] | 704

Structure (SMILES) | EC50 [nM]
COC(=O)c1ccc2c(c1)[nH]c1nc(C(O)c3ccccc3)nc(NCCCN3CCCCC3)c12 (centres unmarked) [Compound 14] | 4
CN(CCCN)CCCNc1nc(Cc2cccc(Br)c2)nc2[nH]c3cc(-c4nnn(C)n4)ccc3c12 [Compound 25] | 115
CN(CCC[N+](C)(C)C)c1nc(Cc2ccccc2)nc2[nH]c3cc(-c4nnn(C)n4)ccc3c12 [Compound 26] | 484
COC(=O)c1ccc2c(c1)[nH]c1nc(Cc3cccc(CC(=O)O)c3)nc(NCCCN(C)CCCN)c12 [Compound 20] | 113
CNS(=O)(=O)c1cccc(Nc2ncnc3[nH]c4cc(C(=O)OC)ccc4c23)c1 [Compound 43] | 263
CN(CCCNC(=O)COCCOCCN)CCCNc1nc(Cc2ccccc2)nc2[nH]c3cc(-c4nnn(C)n4)ccc3c12 [Compound 23] | 249
CNS(=O)(=O)c1ccc(CNc2nc(Cc3ccccc3)nc3[nH]c4cc(C(=O)OC)ccc4c23)cc1 [Compound 51] | 62
COC(=O)c1ccc2c(c1)[nH]c1cc(Cc3ccsc3)nc(N[C@H]3CC[C@H](N)CC3)c12 [Compound 39] | 114
COC(=O)c1ccc2c(c1)[nH]c1nc(Cc3ccccc3)nc(NCCCN(C)CC(O)COCc3ccccc3)c12 (centres unmarked) [Compound 11] | 101
COC(=O)c1ccc2c(c1)[nH]c1nc(Cc3ccccc3)nc(NCCCN3C(=O)CCC3=O)c12 [Compound 49] | 41
COC(=O)c1ccc2c(c1)[nH]c1nc(C(C)c3ccccc3)nc(NCCCN3CCCCC3)c12 (centres unmarked) [Compound 18] | 67
CCNCCNc1nc(Cc2ccccc2)nc2[nH]c3cc(C(=O)OC)ccc3c12 [Compound 57] | 4.8
CCN(CC)CCN(CC)c1nc(Cc2ccccc2)nc2[nH]c3cc(C(=O)OC)cnc3c12 [Compound 31] | 394
C#CCOC(CNc1nc(Cc2ccccc2)nc2[nH]c3cc(C(=O)OC)ccc3c12)CN1CCCCC1 (centres unmarked) [Compound 9] | 24
COC(=O)c1ccc2c(c1)[nH]c1nc(Cc3cccc(C)c3)nc(NCCCN3CCCCC3)c12 [Compound 1] | 38
COC(=O)c1ccc2c(c1)[nH]c1nc(Cc3ccccc3)nc(NCCCN(C)CCCNC(=N)N)c12 [Compound 48] | 61
COC(=O)c1ccc2c(c1)[nH]c1cc(Cc3cccc(OC)c3)nc(NCCCCN3CCCC3)c12 [Compound 34] | 76
COC(=O)c1ccc2c(c1)[nH]c1nc(Cc3ccccc3)nc(NCCC#N)c12 [Compound 58] | 79
CN(CCCN)CCCNc1nc(Cc2ccccc2Br)nc2[nH]c3cc(-c4nnn(C)n4)ccc3c12 [Compound 24] | 51

Tested on: cord blood derived CD34+ cells
Experiment: Ex vivo culture of cord blood derived CD34+ cells, graft composition by flow
Format: cell-based, human
Details: expanded cord blood; UM171 35 nM, SR1 500 nM

Structure (SMILES) | dendritic cells population (CD86+CD34+) share of the graft
CC(C)n1cnc2c(NCCc3ccc(O)cc3)nc(-c3csc4ccccc34)nc21 [SR1] | less than 5%
